Values of other authors, collected in patent US20110086017A1, “Medical Food composition and methods for management of inflammatory processes in mammals” (priority 2009, published 2011).

Test system: plasma exudate at the site of inflammation
Settings: animal study; by decreasing bradykinin and pre-kallikrein levels

In the case of Bromelain, the “plasma exudate at the site of inflammation” value is listed as “dose-dependently reduced plasma exudate”.
